Patent EP0776155B1, “DELIVERY OF EXOGENOUS CHEMICAL SUBSTANCES TO PLANT TISSUES” (MONSANTO COMPANY, priority 1994, dated 1996)

Columns and labels:
Type in all cases: in vivo
[1] = system: common lambsquarter (Chenopodium album, CHEAL); assay: Example 46: percent control, various propelled particulate abrasives, glyphosate spray; details: glyphosate 0.11 kg a.e./ha, 200-mesh
Experimental: In this Example illustrative of the invention, common lambsquarter (Chenopodium album, CHEAL) seeds were planted in 4-inch (10.1-cm) square pots filled with a soil mix consisting of 50% Metromix 350 plus 50% silt loam to which 100 g/cu ft (3.57 kg/m^3) Osmocote fertilizer were added, and the seeds were covered with the same soil mix without added fertilizer. […] The same settings were maintained before and after treatment.
Physical injury in this Example was inflicted on the above-ground portions of the plants, approximately 2 weeks after planting, by various propelled particulate abrasives. This was applied using the same sandblaster as used in Example 47. For this Example, air pressure was maintained at 40 lb/sq inch (276 kiloPascals), the nozzle was set 16 inches (41 cm) above the plant canopy, track speed was under 1 mile/hour (1.6 km/hr) and one pass was made with the sandblaster. […] Some plants received no abrasion.
Materials used as abrasive agents in this study were: • garnet, 200-mesh as used in Example 47 • glass cullet, 1040 supplied by Universal • glass cullet, 1035 supplied by Universal • aluminum oxide type B, 120-mesh • white silica sand, 1.0 profile size, supplied by Unimin • glass beads, 140-270 mesh • Scott's Lawn & Garden fertilizer granules ground to a fine powder using a Retsch 2M-1 mill
Plants were then assigned to different herbicide treatments in a factorial experimental design with 2 replications. All plants for each herbicide treatment were sprayed at the same time using a track sprayer calibrated to deliver 20 gallons/acre (187 liters/hectare) water with an 8002E nozzle having a 50-mesh screen, 16 inches (41 cm) above the plant canopy. In these Examples the herbicide used was glyphosate as its isopropylamine salt, in the form of the aqueous concentrate formulation MON 2139 of Monsanto Company. Spray solutions were made from stock solutions prepared by dilution of MON 2139 in water.
After an interval of 12 days, a visual evaluation was performed to estimate herbicidal efficacy as percent control of treated plants compared to untreated check plants.

[2] = system: velvetleaf (Abutilon theophrasti, ABUTH); assay: Example 49: percent control, dry ice (solid carbon dioxide) injury then glyphosate spray
Experimental: In this Example illustrative of the invention, velvetleaf (Abutilon theophrasti, ABUTH) seeds were planted in 4-inch (10.1-cm) square pots filled with 100% silt loam to which 35 g/cu ft (1.25 kg/m^3) IBDU fertilzer were added, and the seeds were covered with 50% Rediearth plus 50% silt loam without fertilizer. […] The same settings were maintained before and after treatment.
Physical injury in this Example was inflicted on the above-ground portions of the plants, two weeks after planting, by means of 15-30 particles of dry ice (carbon dioxide in its solid phase) propelled on to each plant using a 1 oz (28.3 ml) French square bottle having two 3 mm holes in the lid, with vigorous shaking of the bottle 8-12 inches (20-30 cm) above the plant canopy.
After dry ice treatment, plants were sprayed with glyphosate as its isopropylamine salt, in the form of the aqueous concentrate formulation MON 2139 of Monsanto Company. Plants with and without the dry ice treatment were sprayed at the same time using a track sprayer calibrated to deliver 20 gallons/acre (187 liters/ha) water with an 8002E nozzle having a 50-mesh screen, 16 inches (41 cm) above the plant canopy. Each treatment was replicated three times. Similar glyphosate treatments were applied to plants which had not received dry ice. Plants were returned to the greenhouse after spraying. […]

[3] = system: silvergrass (Vulpia sp., VLPSS); assay: Example 51: field experiment, percent control, bruising or blasting then glyphosate spray; details: 14 days after glyphosate application
Experimental: In this Example illustrative of the invention, a field experiment was conducted in the Australian Capital Territory on 5-10 cm high vegetation consisting primarily of white flatweed (Hypochoeris microcephala, HRYMI) at the rosette stage of growth and silvergrass (Vulpia sp., VLPSS) at the 1-3 tiller stage. Plots were established, 2 m wide and 10 m long, with 3 replications of each treatment.
Plots received either no physical injury, or one of two injury treatments, a prior art method described herein as "bruising" and a method of the present invention described herein as "blasting". Bruising involved driving a 2 metric ton four-wheel drive vehicle fitted with rubber tires, twice over the plot in opposite directions. For blasting, a hand-held sandblaster was used having a container of capacity 1000 cm^3 slung under the gun body. The sandblaster was made of die-cast aluminum alloy and equipped with a 6 mm nozzle. The operating pressure was 95 lb/sq inch (655 kPa). The abrasive used was a commercial product consisting of fine glass particles.
Within an hour after bruising or blasting, plots received an application of glyphosate as its isopropylamine salt in the form of the aqueous concentrate formulation sold in Australia as Roundup® herbicide, diluted appropriately in water. Application was made using a hand-held boom sprayer fitted with 11001 nozzles, operating at 250 kPa pressure and delivering 90 liters/ha spray volume.
After an interval of 14 days, a visual evaluation was performed to estimate herbicidal efficacy as percent control of plants in treated plots compared to untreated check plots.

O=C(O)CNCP(=O)(O)O [glyphosate, N-phosphonomethylglycine]
percent control of CHEAL 12 days after glyphosate application ([1]; aluminum oxide, abrasive rate* (kg/ha) 143, calculated based on garnet): 46% | percent control of CHEAL 12 days after glyphosate application ([1]; aluminum oxide, abrasive rate* (kg/ha) 256, calculated based on garnet): 50% | percent control of CHEAL 12 days after glyphosate application ([1]; fertilizer, abrasive rate* (kg/ha) 143, calculated based on garnet): 25% | percent control of CHEAL 12 days after glyphosate application ([1]; fertilizer, abrasive rate* (kg/ha) 256, calculated based on garnet): 34% | percent control of CHEAL 12 days after glyphosate application ([1]; garnet, abrasive rate* (kg/ha) 143): 52% | percent control of CHEAL 12 days after glyphosate application ([1]; garnet, abrasive rate* (kg/ha) 256): 37% | percent control of CHEAL 12 days after glyphosate application ([1]; glass beads, abrasive rate* (kg/ha) 143, calculated based on garnet): 62% | percent control of CHEAL 12 days after glyphosate application ([1]; glass beads, abrasive rate* (kg/ha) 256, calculated based on garnet): 43% | percent control of CHEAL 12 days after glyphosate application ([1]; glass cullet, 1035, abrasive rate* (kg/ha) 143, calculated based on garnet): 28% | percent control of CHEAL 12 days after glyphosate application ([1]; glass cullet, 1035, abrasive rate* (kg/ha) 256, calculated based on garnet): 48% | percent control of CHEAL 12 days after glyphosate application ([1]; glass cullet, 1040, abrasive rate* (kg/ha) 143, calculated based on garnet): 38% | percent control of CHEAL 12 days after glyphosate application ([1]; glass cullet, 1040, abrasive rate* (kg/ha) 256, calculated based on garnet): 20% | percent control of CHEAL 12 days after glyphosate application ([1]; white silica sand, abrasive rate* (kg/ha) 143, calculated based on garnet): 38% | percent control of CHEAL 12 days after glyphosate application ([1]; white silica sand, abrasive rate* (kg/ha) 256, calculated based on garnet): 50% | percent control of ABUTH ([2]; glyphosate rate 0.014 kg a.i./ha, not treated with dry ice, 5 DAT): 0% | percent control of ABUTH ([2]; glyphosate rate 0.014 kg a.i./ha, not treated with dry ice, 11 DAT): 0% | percent control of ABUTH ([2]; glyphosate rate 0.014 kg a.i./ha, treated with dry ice, 5 DAT): 0% | percent control of ABUTH ([2]; glyphosate rate 0.014 kg a.i./ha, treated with dry ice, 11 DAT): 0% | percent control of ABUTH ([2]; glyphosate rate 0.028 kg a.i./ha, not treated with dry ice, 5 DAT): 0% | percent control of ABUTH ([2]; glyphosate rate 0.028 kg a.i./ha, not treated with dry ice, 11 DAT): 0% | percent control of ABUTH ([2]; glyphosate rate 0.028 kg a.i./ha, treated with dry ice, 5 DAT): 0% | percent control of ABUTH ([2]; glyphosate rate 0.028 kg a.i./ha, treated with dry ice, 11 DAT): 0% | percent control of ABUTH ([2]; glyphosate rate 0.056 kg a.i./ha, not treated with dry ice, 5 DAT): 0% | percent control of ABUTH ([2]; glyphosate rate 0.056 kg a.i./ha, not treated with dry ice, 11 DAT): 0% | percent control of ABUTH ([2]; glyphosate rate 0.056 kg a.i./ha, treated with dry ice, 5 DAT): 0% | percent control of ABUTH ([2]; glyphosate rate 0.056 kg a.i./ha, treated with dry ice, 11 DAT): 2% | percent control of ABUTH ([2]; glyphosate rate 0.11 kg a.i./ha, not treated with dry ice, 5 DAT): 8% | percent control of ABUTH ([2]; glyphosate rate 0.11 kg a.i./ha, not treated with dry ice, 11 DAT): 0% | percent control of ABUTH ([2]; glyphosate rate 0.11 kg a.i./ha, treated with dry ice, 5 DAT): 22% | percent control of ABUTH ([2]; glyphosate rate 0.11 kg a.i./ha, treated with dry ice, 11 DAT): 8% | percent control of ABUTH ([2]; glyphosate rate 0.21 kg a.i./ha, not treated with dry ice, 5 DAT): 60% | percent control of ABUTH ([2]; glyphosate rate 0.21 kg a.i./ha, not treated with dry ice, 11 DAT): 73% | percent control of ABUTH ([2]; glyphosate rate 0.21 kg a.i./ha, treated with dry ice, 5 DAT): 71% | percent control of ABUTH ([2]; glyphosate rate 0.21 kg a.i./ha, treated with dry ice, 11 DAT): 83% | percent control of ABUTH ([2]; glyphosate rate 0.45 kg a.i./ha, not treated with dry ice, 5 DAT): 80% | percent control of ABUTH ([2]; glyphosate rate 0.45 kg a.i./ha, not treated with dry ice, 11 DAT): 100% | percent control of ABUTH ([2]; glyphosate rate 0.45 kg a.i./ha, treated with dry ice, 5 DAT): 89% | percent control of ABUTH ([2]; glyphosate rate 0.45 kg a.i./ha, treated with dry ice, 11 DAT): 100% | percent control of ABUTH ([2]; glyphosate rate 0.89 kg a.i./ha, not treated with dry ice, 5 DAT): 97% | percent control of ABUTH ([2]; glyphosate rate 0.89 kg a.i./ha, not treated with dry ice, 11 DAT): 100% | percent control of ABUTH ([2]; glyphosate rate 0.89 kg a.i./ha, treated with dry ice, 5 DAT): 93% | percent control of ABUTH ([2]; glyphosate rate 0.89 kg a.i./ha, treated with dry ice, 11 DAT): 100% | percent control VLPSS ([3]; glyphosate rate 0.18 kg a.e./ha, injury treatment blasting): 77% | percent control VLPSS ([3]; glyphosate rate 0.18 kg a.e./ha, injury treatment bruising): 78% | percent control VLPSS ([3]; glyphosate rate 0.18 kg a.e./ha, injury treatment none): 65% | percent control VLPSS ([3]; glyphosate rate 0.25 kg a.e./ha, injury treatment blasting): 82% | percent control VLPSS ([3]; glyphosate rate 0.25 kg a.e./ha, injury treatment bruising): 83% | percent control VLPSS ([3]; glyphosate rate 0.25 kg a.e./ha, injury treatment none): 85% | percent control VLPSS ([3]; glyphosate rate 0.36 kg a.e./ha, injury treatment blasting): 98% | percent control VLPSS ([3]; glyphosate rate 0.36 kg a.e./ha, injury treatment bruising): 83% | percent control VLPSS ([3]; glyphosate rate 0.36 kg a.e./ha, injury treatment none): 95%
